Data from US20070128217A1 (priority 2003, published 2007).

Key:
[1] = system: antibodies in sera from SARS patients (sera 1a, 1b, 2, 6, 37, 62, London, SARS-yellow, SARS-green); format: binding, human; design: Binding of serum 6 to linear peptides of protein X1 of SARS-CoV Urbani / Binding of serum 37 to linear peptides of protein X1 of SARS-CoV Urbani / Binding of serum 6 to looped/cyclic peptide (PEPSCAN-ELISA) / Binding of serum 37 to looped/cyclic peptide (PEPSCAN-ELISA) / Binding of serum 37 to looped/cyclic peptides of protein X1 of SARS-CoV Urbani / Binding of serum 6 to linear peptides of protein X2 / Binding of serum 37 to linear peptides of protein X2 / Binding of serum 37 to looped/cyclic peptides of protein X2 of SARS-CoV Urbani / Binding of serum 6 to linear peptides of protein M of SARS-CoV Urbani / Binding of serum 37 to linear peptides of protein M of SARS-CoV Urbani / Binding of serum 6 to looped/cyclic peptides of protein M of SARS-CoV Urbani / Binding of serum 37 to looped/cyclic peptides of protein M of SARS-CoV Urbani / Binding of serum 6 to linear peptides of protein X3 of SARS-CoV Urbani / Binding of serum 37 to linear peptides of protein X3 of SARS-CoV Urbani / Binding of serum 37 to looped/cyclic peptides of protein X3 of SARS-CoV Urbani / Binding of serum 6 to linear peptides of protein X4 of SARS-CoV Urbani / Binding of serum 37 to linear peptides of protein X4 of SARS-CoV Urbani / Binding of serum 37 to looped/cyclic peptides of protein X4 of SARS-CoV Urbani / Binding of serum 6 to linear peptides of protein X5 of SARS-CoV Urbani / Binding of serum 37 to linear peptides of protein X5 of SARS-CoV Urbani / Binding of serum 37 to looped/cyclic peptides of protein X5 of SARS-CoV Urbani / Binding of serum 6 to linear peptides of protein N of SARS-CoV Urbani / Binding of serum 37 to linear peptides of protein N of SARS-CoV Urbani / Binding of serum 6 to linear peptide (PEPSCAN-ELISA) / Binding of serum 1a to looped/cyclic peptides of protein N of SARS-CoV Urbani / Binding of serum 1b to looped/cyclic peptides of protein N of SARS-CoV Urbani / Binding of serum 2 to looped/cyclic peptides of protein N of SARS-CoV Urbani / Binding of serum 6 to looped/cyclic peptides of protein N of SARS-CoV Urbani / Binding of serum 37 to looped/cyclic peptides of protein N of SARS-CoV Urbani / Binding of serum 62 to looped/cyclic peptides of protein N of SARS-CoV Urbani / Binding of serum London to looped/cyclic peptides of protein N of SARS-CoV Urbani / Binding of serum SARS-green to looped/cyclic peptides of protein N of SARS-CoV Urbani: unit not given here
[2] = system: rabbit serum obtained by immunizing a rabbit with the SARS-CoV strain Frankfurt 1; format: binding; design: Binding of a rabbit serum to linear peptides / Binding of a rabbit serum to looped peptides / Rabbit serum linear peptides / Rabbit serum looped peptides / Binding of a rabbit serum to linear peptides of protein N of SARS-CoV Urbani (Rabbit serum linear peptides) / Binding of a rabbit serum to looped/cyclic peptides of protein N of SARS-CoV Urbani (Rabbit serum looped peptides): unit not given here
[3] = system: recombinant human anti-SARS-CoV antibody 03-018; format: binding; design: Binding of antibody 03-018 to linear peptides of the N protein of SARS-CoV Urbani / Binding of antibody 03-018 to looped/cyclic peptides of the N protein of SARS-CoV Urbani: unit not given here
[4] = system: control sera (pooled serum of ten healthy LUMC hospital workers; commercial negative donor pooled serum from the Dutch bloodbank); format: binding, human; design: Binding of Control serum LUMC to linear peptides / Binding of Control serum Blood-bank to linear peptides / Binding of Control serum LUMC to looped peptides / Binding of Control Serum Blood-Bank to Looped peptides / Binding of Control serum LUMC to linear peptides of the protein M of SARS-CoV Urbani / Binding of Control serum Blood-bank to linear peptides of the protein M of SARS-CoV Urbani / Binding of Control serum LUMC to looped peptides of the protein M of SARS-CoV Urbani / Binding of Control Serum Blood-Bank to Looped peptides of the protein M of SARS-CoV Urbani: unit not given here

For GAIKLDDKDPQFKDN, the “Binding of serum 1a to linear peptides of protein N of SARS-CoV Urbani” value [1] was 0.2, the “Binding of serum 1a to looped/cyclic peptides of protein N of SARS-CoV Urbani” value [1] was 0.3 and the “Binding of serum 1b to linear peptides of protein N of SARS-CoV Urbani” value [1] was 0.1. For the same sequence, the “Binding of serum 1b to looped/cyclic peptides of protein N of SARS-CoV Urbani” value [1] was 0.2, the “Binding of serum 2 to linear peptides of protein N of SARS-CoV Urbani” value [1] was 0.2 and the “Binding of serum 2 to looped/cyclic peptides of protein N of SARS-CoV Urbani” value [1] was 0.4. For the same sequence, the “Binding of serum 6 to linear peptides of protein N of SARS-CoV Urbani” value [1] was 0.2, the “Binding of serum 6 to looped/cyclic peptides of protein N of SARS-CoV Urbani” value [1] was 0.2 and the “Binding of serum 37 to linear peptides of protein N of SARS-CoV Urbani” value [1] was 0.7. For the same sequence, the “Binding of serum 37 to looped/cyclic peptides of protein N of SARS-CoV Urbani” value [1] was 0.5, the “Binding of serum 62 to linear peptides of protein N of SARS-CoV Urbani” value [1] was 0.9 and the “Binding of serum 62 to looped/cyclic peptides of protein N of SARS-CoV Urbani” value [1] was 0.5. For the same sequence, the “Binding of serum London to linear peptides of protein N of SARS-CoV Urbani” value [1] was 0.6, the “Binding of serum London to looped/cyclic peptides of protein N of SARS-CoV Urbani” value [1] was 0.4 and the “Binding of serum SARS-green to linear peptides of protein N of SARS-CoV Urbani” value [1] was 0.5. For the same sequence, the “Binding of serum SARS-green to looped/cyclic peptides of protein N of SARS-CoV Urbani” value [1] was 0.8, the “Binding of serum SARS-yellow to linear peptides of protein N of SARS-CoV Urbani” value [1] was 0.7 and the “Binding of serum SARS-yellow to looped/cyclic peptides of protein N of SARS-CoV Urbani” value [1] was 0.5. The “Binding of a rabbit serum to linear peptides of protein N of SARS-CoV Urbani (Rabbit serum linear peptides)” value (shortened to “Binding … (Rabbit serum linear peptides)”) [2] was 0.1, the “Binding of a rabbit serum to looped/cyclic peptides of protein N of SARS-CoV Urbani (Rabbit serum looped peptides)” value [2] was 0.3 and the “Binding of antibody 03-018 to linear peptides of the N protein of SARS-CoV Urbani” value [3] was 0.1. For the same sequence, the “Binding of antibody 03-018 to looped/cyclic peptides of the N protein of SARS-CoV Urbani” value [3] was 0.2, the “Control Serum Blood-Bank Looped peptides” value [4] was 0.6 and the “Control serum Blood-bank linear peptides” value [4] was 0.7. For the same sequence, the “Control serum LUMC linear peptides” value [4] was 0.7 and the “Control serum LUMC looped peptides” value [4] was 0.5.
In the case of GANKEGIVWVATEGA, the “Binding of serum 1a to linear peptides of protein N of SARS-CoV Urbani” value [1] is reported as 0.2, the “Binding of serum 1a to looped/cyclic peptides of protein N of SARS-CoV Urbani” value [1] is reported as 0.2 and the “Binding of serum 1b to linear peptides of protein N of SARS-CoV Urbani” value [1] is reported as 0.1. For the same sequence, the “Binding of serum 1b to looped/cyclic peptides of protein N of SARS-CoV Urbani” value [1] was 0.1, the “Binding of serum 2 to linear peptides of protein N of SARS-CoV Urbani” value [1] was 0.2 and the “Binding of serum 2 to looped/cyclic peptides of protein N of SARS-CoV Urbani” value [1] was 0.2. For the same sequence, the “Binding of serum 6 to linear peptides of protein N of SARS-CoV Urbani” value [1] was 0.1, the “Binding of serum 6 to looped/cyclic peptides of protein N of SARS-CoV Urbani” value [1] was 0.1 and the “Binding of serum 37 to linear peptides of protein N of SARS-CoV Urbani” value [1] was 0.7. For the same sequence, the “Binding of serum 37 to looped/cyclic peptides of protein N of SARS-CoV Urbani” value [1] was 0.5, the “Binding of serum 62 to linear peptides of protein N of SARS-CoV Urbani” value [1] was 0.6 and the “Binding of serum 62 to looped/cyclic peptides of protein N of SARS-CoV Urbani” value [1] was 0.3. For the same sequence, the “Binding of serum London to linear peptides of protein N of SARS-CoV Urbani” value [1] was 0.4, the “Binding of serum London to looped/cyclic peptides of protein N of SARS-CoV Urbani” value [1] was 0.3 and the “Binding of serum SARS-green to linear peptides of protein N of SARS-CoV Urbani” value [1] was 0.2. The “Binding of serum SARS-green to looped/cyclic peptides of protein N of SARS-CoV Urbani” value [1] was 0.2, the “Binding of serum SARS-yellow to linear peptides of protein N of SARS-CoV Urbani” value [1] was 0.6 and the “Binding of serum SARS-yellow to looped/cyclic peptides of protein N of SARS-CoV Urbani” value [1] was 0.4. For the same sequence, the “Binding … (Rabbit serum linear peptides)” value [2] was 0.2, the “Binding of a rabbit serum to looped/cyclic peptides of protein N of SARS-CoV Urbani (Rabbit serum looped peptides)” value [2] was 0.5 and the “Binding of antibody 03-018 to linear peptides of the N protein of SARS-CoV Urbani” value [3] was 0.1. The “Binding of antibody 03-018 to looped/cyclic peptides of the N protein of SARS-CoV Urbani” value [3] was 0.2, the “Binding of Control Serum Blood-Bank to Looped peptides” value [4] was 0.4 and the “Binding of Control serum Blood-bank to linear peptides” value [4] was 0.5. For the same sequence, the “Binding of Control serum LUMC to linear peptides” value [4] was 0.5 and the “Binding of Control serum LUMC to looped peptides” value [4] was 0.5.
For GARPKQRRPQGLPNN, the “Binding of serum 1a to linear peptides of protein N of SARS-CoV Urbani” value [1] was 0.2, the “Binding of serum 1a to looped/cyclic peptides of protein N of SARS-CoV Urbani” value [1] was 0.3 and the “Binding of serum 1b to linear peptides of protein N of SARS-CoV Urbani” value [1] was 0.1. The “Binding of serum 1b to looped/cyclic peptides of protein N of SARS-CoV Urbani” value [1] was 0.1, the “Binding of serum 2 to linear peptides of protein N of SARS-CoV Urbani” value [1] was 0.2 and the “Binding of serum 2 to looped/cyclic peptides of protein N of SARS-CoV Urbani” value [1] was 0.4. For the same sequence, the “Binding of serum 6 to linear peptides of protein N of SARS-CoV Urbani” value [1] was 0.1, the “Binding of serum 6 to looped/cyclic peptides of protein N of SARS-CoV Urbani” value [1] was 0.3 and the “Binding of serum 37 to linear peptides of protein N of SARS-CoV Urbani” value [1] was 0.4. For the same sequence, the “Binding of serum 37 to looped/cyclic peptides of protein N of SARS-CoV Urbani” value [1] was 0.4, the “Binding of serum 62 to linear peptides of protein N of SARS-CoV Urbani” value [1] was 0.6 and the “Binding of serum 62 to looped/cyclic peptides of protein N of SARS-CoV Urbani” value [1] was 0.5. The “Binding of serum London to linear peptides of protein N of SARS-CoV Urbani” value [1] was 0.5, the “Binding of serum London to looped/cyclic peptides of protein N of SARS-CoV Urbani” value [1] was 0.4 and the “Binding of serum SARS-green to linear peptides of protein N of SARS-CoV Urbani” value [1] was 0.3. For the same sequence, the “Binding of serum SARS-green to looped/cyclic peptides of protein N of SARS-CoV Urbani” value [1] was 0.4, the “Binding of serum SARS-yellow to linear peptides of protein N of SARS-CoV Urbani” value [1] was 0.6 and the “Binding of serum SARS-yellow to looped/cyclic peptides of protein N of SARS-CoV Urbani” value [1] was 0.2. The “Binding … (Rabbit serum linear peptides)” value [2] was 0.1, the “Binding of a rabbit serum to looped/cyclic peptides of protein N of SARS-CoV Urbani (Rabbit serum looped peptides)” value [2] was 0.2 and the “Binding of antibody 03-018 to linear peptides of the N protein of SARS-CoV Urbani” value [3] was 0.1. For the same sequence, the “Binding of antibody 03-018 to looped/cyclic peptides of the N protein of SARS-CoV Urbani” value [3] was 0.2, the “Binding of Control Serum Blood-Bank to Looped peptides” value [4] was 0.5 and the “Binding of Control serum Blood-bank to linear peptides” value [4] was 0.7. For the same sequence, the “Binding of Control serum LUMC to linear peptides” value [4] was 0.7 and the “Binding of Control serum LUMC to looped peptides” value [4] was 0.6.
